Results as given in patent US20250122203A1, “ADENOSINE RECEPTOR ANTAGONISTS” (Crossignal Therapeutics, Inc., priority 2021, published 2025).

Experiments:
[1] = biological target: human adenosine A2a receptor (Homo sapiens, UniProt P29274); assay: Adenosine A2a Receptor Whole Cell Cyclic AMP Assay; conditions: HEK293 cells stably expressing human A2a; for A2a @ 100 μM Adenosine (cAMP IC50): in the presence of 100 μM adenosine; for A2a @ 1 μM Adenosine (cAMP IC50): in the presence of 1 μM adenosine
Chain of human adenosine A2a receptor (P29274 whole entry): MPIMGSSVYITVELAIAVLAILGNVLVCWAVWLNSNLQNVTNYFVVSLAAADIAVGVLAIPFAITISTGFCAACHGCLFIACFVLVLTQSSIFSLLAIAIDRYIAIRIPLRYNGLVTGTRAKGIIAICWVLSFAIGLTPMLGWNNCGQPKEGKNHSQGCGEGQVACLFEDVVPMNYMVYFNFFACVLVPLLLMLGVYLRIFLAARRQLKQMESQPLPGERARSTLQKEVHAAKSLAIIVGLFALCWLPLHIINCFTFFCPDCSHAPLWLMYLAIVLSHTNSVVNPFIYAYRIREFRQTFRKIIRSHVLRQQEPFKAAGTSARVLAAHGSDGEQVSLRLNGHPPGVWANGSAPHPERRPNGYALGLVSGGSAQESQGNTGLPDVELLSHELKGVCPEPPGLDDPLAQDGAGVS

[2] = biological target: T1, human adenosine A2b receptor (Homo sapiens, UniProt P29275); assay: Adenosine A2b Receptor Whole Cell Cyclic AMP Assay; conditions: HEK293 cells transfected with human A2b; in the presence of 10 μM adenosine
T1 sequence (P29275 1-332): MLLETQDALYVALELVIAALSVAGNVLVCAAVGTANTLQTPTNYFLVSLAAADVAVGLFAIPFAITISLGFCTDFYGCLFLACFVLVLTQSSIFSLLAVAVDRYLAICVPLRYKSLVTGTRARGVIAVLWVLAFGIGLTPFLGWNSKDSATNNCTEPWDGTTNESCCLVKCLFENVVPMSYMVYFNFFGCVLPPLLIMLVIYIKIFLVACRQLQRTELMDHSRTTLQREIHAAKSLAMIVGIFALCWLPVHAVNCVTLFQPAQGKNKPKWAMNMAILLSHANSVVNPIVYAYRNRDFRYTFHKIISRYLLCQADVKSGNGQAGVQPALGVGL

| SMILES | A2a @ 100 μM Adenosine (cAMP IC50) [1] | A2a @ 1 μM Adenosine (cAMP IC50) [1] | further results |
| --- | --- | --- | --- |
| Cc1ccnc2ccc(-c3c(-c4ccc(F)cc4)nc(N)c4nnnn34)cc12 [1-6, 6-(4-fluorophenyl)-5-(4-methylquinolin-6-yl)tetrazolo[1,5-a]pyrazin-8-amine] | ++ (partial) |  |  |
| Cc1ccnc2ccc(-c3c(-c4cccc(Cl)c4)nc(N)c4nnnn34)cc12 [1-50, 6-(3-chlorophenyl)-5-(4-methylquinolin-6-yl)tetrazolo[1,5-a]pyrazin-8-amine] |  | +++ (partial) |  |
| Cc1ccnc2ccc(-c3c(-c4ccc(C(=O)N(C)C)cc4)nc(N)c4nnnn34)cc12 [1-40, 4-(8-amino-5-(4-methylquinolin-6-yl)tetrazolo[1,5-a]pyrazin-6-yl)-N,N-dimethylbenzamide] |  | +++ (partial) |  |
| Cc1ccnc2ccc(-c3c(-c4ccc(Cl)cc4)nc(N)c4nnnn34)cc12 [1-39, 6-(4-chlorophenyl)-5-(4-methylquinolin-6-yl)tetrazolo[1,5-a]pyrazin-8-amine] |  | +++ (partial) |  |
| Nc1nc(-c2ccc(F)cc2)c(-c2ccc3ncc(Cl)n3c2)n2nnnc12 [1-23, 5-(3-chloroimidazo[1,2-a]pyridin-6-yl)-6-(4-fluorophenyl)tetrazolo[1,5-a]pyrazin-8-amine] | ++ (partial) |  |  |
| Cc1cc(-c2c(-c3ccc(F)cc3)nc(N)n3nnnc23)cc(C)n1 [1-28, 8-(2,6-dimethylpyridin-4-yl)-7-(4-fluorophenyl)tetrazolo[1,5-c]pyrimidin-5-amine] |  |  | A2b @ 10 μM Adenosine (cAMP IC50) [2]: + (partial) |
| Nc1nc(-c2ccc(F)cc2)c(-c2ccc3ncoc3c2)n2nnnc12 [1-10, 5-(benzo[d]oxazol-6-yl)-6-(4-fluorophenyl)tetrazolo[1,5-a]pyrazin-8-amine] | + (partial) |  |  |
